Test systems include SF-539; M19-MEL; HOP-92; UO-31; HT-29; U-251; NCI-H226; SNB-75; EKVX; RPMI-8226; NCI-H23; SK-MEL-2; SNB-19; SK-MEL-5; HL-60; SK-MEL-28; SF-295; KM12.
Common to all, as to test: NCI anticancer screen, dose series, 48 h

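1) Cells in 96-well plates. 2) Compound, 48 h, 5 concentrations. 3) Linear interpolation between surrounding doses. 4) Unreached endpoint = highest concentration. GI50: concentration for 50% inhibition of growth.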 The source made the active and inactive calls. Cut-off read from the data, not from the text of the source: active = GI50 up to about 1.1 µM and inactive = higher. Where only a bound is given, the exact number is not on record here.

Consider `O=C1OC(c2ccccc2)=N/C1=C/NC(CS)C(=O)O` (configuration not stated), for which the GI50 in the assay with SF-539, with M19-MEL, in the assay with HOP-92, in the assay with UO-31, in the assay with HT-29 and in the assay on U-251 was > 100 µM (inactive) throughout. Besides, the GI50 in the assay with NCI-H226 is > 100 µM (inactive); in the assay with SNB-75, 64.3 µM (inactive); in the assay with EKVX, > 100 µM (inactive); with RPMI-8226 it was > 100 µM (inactive); in the assay with NCI-H23, > 100 µM (inactive); in the assay on SK-MEL-2 it was > 100 µM (inactive). The GI50 in the assay on SNB-19, with SK-MEL-5, with HL-60, in the assay on SK-MEL-28 and in the assay with SF-295 was > 100 µM (inactive) each time.
As to `O=[N+]([O-])c1ccc(/C(Cl)=C/c2ccc(/C=C(\Cl)c3ccc([N+](=O)[O-])cc3[N+](=O)[O-])cc2)c([N+](=O)[O-])c1`, the GI50 with SF-539, in the assay on M19-MEL, with HOP-92, with UO-31, in the assay on HT-29 and in the assay on U-251 was > 100 µM (inactive) in each case. The GI50 in the assay on NCI-H226, with SNB-75, in the assay on EKVX, with RPMI-8226, in the assay on NCI-H23 and in the assay on SK-MEL-2 was > 100 µM (inactive) in each case. The GI50 in the assay on SK-MEL-5 is > 100 µM (inactive); with HL-60, 57.4 µM (inactive); with SK-MEL-28, > 100 µM (inactive); in the assay with SF-295, > 100 µM (inactive).
Consider `CCCCCNC(=O)CCCCCCCCCCCNC(=O)CCCCCCCCCCN1C=CC(=CC=C2C=CC(=O)C=C2)C=C1`, for which the GI50 is 30.3 µM (inactive) in the assay with SF-539; 34.4 µM (inactive) with M19-MEL; 14.7 µM (inactive) with HOP-92; > 100 µM (inactive) in the assay with UO-31; 54.6 µM (inactive) in the assay with HT-29; 32.1 µM (inactive) with U-251. The GI50 in the assay with NCI-H226 is 63.8 µM (inactive); in the assay with SNB-75, 19.4 µM (inactive); with EKVX, > 100 µM (inactive); in the assay with RPMI-8226, 8.99 µM (inactive); with NCI-H23, 28.2 µM (inactive); in the assay on SNB-19, 34.8 µM (inactive). The GI50 in the assay with KM12 is 37.4 µM (inactive); in the assay on SK-MEL-5, 35.2 µM (inactive); in the assay with HL-60, 2.51 µM (inactive); in the assay with SK-MEL-28 it was > 100 µM (inactive); in the assay on SF-295, 71.4 µM (inactive).
Regarding `C/C(=N\NC(N)=S)c1cc(C)c(C)cc1C`, the GI50 is 35.5 µM (inactive) in the assay with SF-539; 25.9 µM (inactive) in the assay on M19-MEL; > 100 µM (inactive) in the assay with HOP-92; 56.8 µM (inactive) in the assay with UO-31; 20.2 µM (inactive) in the assay on HT-29; 48.6 µM (inactive) with U-251. Also, the GI50 was > 100 µM (inactive) in the assay with NCI-H226; 30.6 µM (inactive) with SNB-75; 8.69 µM (inactive) with EKVX; 31.3 µM (inactive) in the assay on RPMI-8226; 41.7 µM (inactive) in the assay on NCI-H23; 34.6 µM (inactive) in the assay with SK-MEL-2. Further, the GI50 in the assay on KM12 is 25.5 µM (inactive); with SK-MEL-5 it was 57 µM (inactive); in the assay on HL-60, 21.7 µM (inactive); in the assay on SK-MEL-28 it was 86.7 µM (inactive); with SF-295, 47 µM (inactive).
Turning to `O=C(NC1C(=O)NNC1c1ccccc1Cl)c1ccccc1` (configuration not stated), the GI50 in the assay on SF-539, in the assay with M19-MEL, with HOP-92, with UO-31, in the assay on HT-29 and in the assay on U-251 was > 100 µM (inactive) each time. The GI50 in the assay with NCI-H226 is 83 µM (inactive); in the assay with SNB-75, > 100 µM (inactive); in the assay with EKVX, > 100 µM (inactive); with RPMI-8226, 82.2 µM (inactive); in the assay with NCI-H23 it was > 100 µM (inactive); with SK-MEL-2 it was > 100 µM (inactive). Also, the GI50 with SNB-19, in the assay with KM12, in the assay on SK-MEL-5, in the assay with HL-60, in the assay with SK-MEL-28 and in the assay on SF-295 was > 100 µM (inactive) in each case.
For the compound `COC(=O)c1c(C)cc2c(c1O)C1(O)C(=O)c3cc4c(c(O)c3C(=O)C1(OC)C(O)C2)C(=O)C=C(NC1OC(C)C(OC)C(O)C1OC)C4=O` (configuration not stated), the GI50 was 0.0605 µM (active) in the assay with SF-539; 0.0196 µM (active) in the assay with M19-MEL; 0.26 µM (active) in the assay with HOP-92; 0.14 µM (active) in the assay on UO-31; 0.0493 µM (active) with HT-29; 0.207 µM (active) in the assay on U-251. The GI50 with NCI-H226 is 0.189 µM (active); in the assay with SNB-75 it was 0.141 µM (active); with EKVX, 0.241 µM (active); in the assay with RPMI-8226, 0.0157 µM (active); in the assay on NCI-H23, 0.0152 µM (active); in the assay on SK-MEL-2, 0.0284 µM (active). For the same compound, the GI50 with SNB-19 was 0.159 µM (active); in the assay on KM12 it was 0.129 µM (active); with HL-60, 0.0194 µM (active); with SF-295 it was 0.0331 µM (active).
Consider `COc1ccc(/C=C/C(=O)c2cc(C(=O)O)c(OC)cc2OC)cc1OC`, for which the GI50 with SF-539, in the assay on M19-MEL, with HOP-92, with HT-29, with U-251 and in the assay on NCI-H226 was > 100 µM (inactive) throughout. Also, the GI50 with SNB-75, in the assay on EKVX, in the assay with RPMI-8226, in the assay on NCI-H23, in the assay on SNB-19 and with KM12 was > 100 µM (inactive) throughout. Further, the GI50 in the assay on SK-MEL-5, with HL-60, with SK-MEL-28 and in the assay with SF-295 was > 100 µM (inactive) throughout.
Regarding `O=c1c2ccccc2c(=O)c2c1c1[nH]c3ccccc3c1c1c(=O)c3ccccc3c(=O)c21`, the GI50 in the assay on SF-539, in the assay with M19-MEL, in the assay with HOP-92, with UO-31, with HT-29 and in the assay with U-251 was > 100 µM (inactive) throughout. Also, the GI50 in the assay on NCI-H226, in the assay with SNB-75, in the assay on EKVX, in the assay on RPMI-8226, with NCI-H23 and in the assay on SK-MEL-2 was > 100 µM (inactive) throughout. Besides, the GI50 in the assay on SNB-19, in the assay on KM12, in the assay with SK-MEL-5, in the assay with HL-60, in the assay on SK-MEL-28 and with SF-295 was > 100 µM (inactive) in each case.
Turning to `O=C(Nc1ccc([N+](=O)[O-])cc1C(=O)O)c1ccc([N+](=O)[O-])cc1`, the GI50 in the assay with SF-539 is 9.95 µM (inactive); in the assay with M19-MEL, 61 µM (inactive); in the assay with HOP-92, 10.8 µM (inactive); with UO-31, 34.3 µM (inactive); with HT-29, 29 µM (inactive); in the assay on U-251, 37.4 µM (inactive). The GI50 is 17.5 µM (inactive) with NCI-H226; > 100 µM (inactive) with SNB-75; > 100 µM (inactive) in the assay on EKVX; 14.4 µM (inactive) in the assay with RPMI-8226; 19.2 µM (inactive) in the assay on SK-MEL-2; 36.6 µM (inactive) in the assay with SNB-19. The GI50 in the assay with KM12 is 24.8 µM (inactive); with SK-MEL-5, 51.3 µM (inactive); in the assay with HL-60, 17.1 µM (inactive); in the assay on SK-MEL-28 it was 31.1 µM (inactive); with SF-295, > 100 µM (inactive).
Turning to `C=C1C2CC(OC(C)=O)C3(C)C(c4ccoc4)OC(=O)[C@@H](O)[C@]13OC1C[C@H](OC(C)=O)C(C)(C)[C@H](CC(=O)OC)[C@]12C` (some centres not stated), the GI50 with SF-539 was > 100 µM (inactive); in the assay on M19-MEL, > 100 µM (inactive); with HOP-92, 30.3 µM (inactive); in the assay on UO-31, > 100 µM (inactive); in the assay on HT-29, > 100 µM (inactive); with U-251 it was > 100 µM (inactive). Also, the GI50 with NCI-H226 is > 100 µM (inactive); in the assay with SNB-75, 33.6 µM (inactive); in the assay on EKVX it was > 100 µM (inactive); in the assay with RPMI-8226, > 100 µM (inactive); with NCI-H23, > 100 µM (inactive); in the assay on SK-MEL-2 it was > 100 µM (inactive). The GI50 with SNB-19 is > 100 µM (inactive); with KM12, > 100 µM (inactive); with SK-MEL-5, > 100 µM (inactive); in the assay on HL-60 it was 50.6 µM (inactive); in the assay on SK-MEL-28, > 100 µM (inactive); in the assay with SF-295, > 100 µM (inactive).
On to `N#C/C(=C\c1ccc(O)c(O)c1)C(N)=O`, for which the GI50 in the assay with SF-539 was 30.5 µM (inactive); in the assay with M19-MEL, 78.7 µM (inactive); in the assay with HOP-92, 49.9 µM (inactive); in the assay on UO-31, 31.8 µM (inactive); in the assay with HT-29 it was 69.8 µM (inactive); with U-251, 33.9 µM (inactive). The GI50 in the assay with NCI-H226 was 37 µM (inactive); in the assay with SNB-75 it was 17.7 µM (inactive); with EKVX, 53 µM (inactive); in the assay on RPMI-8226 it was 15.5 µM (inactive); in the assay on NCI-H23, 34 µM (inactive); with SK-MEL-2, > 100 µM (inactive). Further, the GI50 in the assay on SNB-19 was 38.5 µM (inactive); in the assay with KM12, 33.1 µM (inactive); in the assay with HL-60, 10.1 µM (inactive); in the assay with SK-MEL-28, 41 µM (inactive); in the assay with SF-295 it was 39.1 µM (inactive).

The values are drawn from ChEMBL document CHEMBL1201862, “PubChem BioAssay data set” (2004).
